Measurements: US20100143313A1, “HOMOGENEOUS DIFFERENTIATION OF HEPATOCYTE-LIKE CELLS FROM EMBRYONIC STEM CELLS” (THE GENERAL HOSPITAL CORPORATION, priority 2008, published 2010)

Assays:
Type in all cases: cell-based, murine
[1] = system: albumin promoter-driven GFP expression in ES-derived endoderm (ESDE) cells; experiment: Screening of agonists for albumin promoter-driven GFP expression in ES-derived endoderm (ESDE) cells, flow cytometry; conditions: agonist d14-d20, 2% DMSO, 1 μM Azacytidine, 1 μM Retinoic Acid, 100 μM SNAP, 1 μM A23187, 1 nM vasopressin, 200 μM IBMX, 2 mM phenobarbital, 10 mM nicotinamide, 0.1 μM PGE2; for Cell fraction of day 30 ES-derived cells positive for albumin promoter-driven GFP expression, High Glucose: high glucose DMEM; for Cell fraction of day 30 ES-derived cells positive for albumin promoter-driven GFP expression, Low Glucose: low glucose DMEM
Description: A transgenic ES cell for enhanced green fluorescence protein (GFP) driven by the albumin promoter was used or the purpose of quickly screening different stimulants for hepatic differentiation. After a total of 30 days of differentiation, the various agonists were evaluated for their ability to induce ES-derived endoderm (ESDE) to express the albumin gene. When the ESDE cells were cultured in high glucose conditions, none of the agonists tested were able to increase cell population fraction positive for GFP expression over 10% (Table 1):
Additionally, for the purpose of quickly screening different stimulants for hepatic differentiation, a transgenic ES cell for enhanced green fluorescence protein (GFP) driven by the albumin promoter was used for these preliminary studies. The transgenic murine J1 cell line was obtained from the National Cancer Center Research Institute (Tokyo, Japan). The murine ES cell line D3 (ATCC, Manassas, Va.) was also used to assess the differentiation of ES cells into endoderm and hepatic lineage cells. Undifferentiated ES cells were cultured in Knockout DMEM (Gibco), supplemented with 15% replacement serum, 4 mM L-glutamine (Gibco), 100 U/mL penicillin (Gibco), 100 U/ml streptomycin (Gibco), 10 μg/mL gentamycin (Gibco), 1000 units/mL Leukemia Inhibitory Factor (LIF; Chemicon International, Temecula, Calif.), and 0.1 mM 2-mercaptoethanol (Gibco) on 0.1% gelatin-coated T-75 tissue culture flasks. Culture medium was replaced every day and cells were passaged at dilutions ranging from 1:5 to 1:20 at least once a week. Cells were cultured at 37° C. and in a 5% CO2 incubator.
To isolate the ES-derived cells in co-culture, the ES cells cultured on top of collagen sandwiched hepatocytes were incubated with dispase (1 mg/mL) (Gibco) for 30-60 min at 37° C. After incubation, the ES-derived cells were detached by gentle pipetting. The collagen-sandwiched hepatocytes remained at the bottom of the dish, thus allowing separation of the ES-derived cells from the primary hepatocytes. The isolated ES-derived cells were replated (day 10) on collagen gel coated 35-mm dishes at a density of 400,000 ES-derived cells per dish and cultured in high glucose DMEM supplemented with 10% FBS, 100 ng/mL oncostatin-M (Sigma), 0.2 μM dexamethasone (Sigma), and insulin/transferrin/selenious acid (5 μg/mL, 5 μg/mL, 5 ng/mL, respectively) (BD Biosciences, San Jose, Calif.). The replated cells were allowed to recover for four days before induction of hepatocyte differentiation. […]
Alternatively, Cells were detached from the collagen surface using 10 U/ml collagenase and 1 U/ml dispase in serum-free DMEM for 30 minutes. […] Collected cells were analyzed by flow cytometry (Epics Altra; Becton Dickinson). FACS data was analyzed using CellQuest software. […]

ESDE cells [2] = experiment: Glycogen staining (periodic acid-Schiff); conditions: after thirty-two days of differentiation
Description: Rat primary hepatocytes are capable of secreting albumin at a rate of approximately 2.0 μg/hour/10^6 cells, and the mouse hepatocarcinoma cell line Hepal-6 can produce albumin at a rate of 4.7 μg/hour/10^6 cells. The ability of the ES-derived hepatocyte-like cells to produced and store glycogen was assessed using a periodic acid-Schiff stain. […] The capacity for the hepatocyte-like cells to actively synthesize glycogen was seen after the culture media was switched from the low-glucose differentiation media to high-glucose DMEM supplemented with 10% FBS and 0.2 μM dexamethasone for two days. More intense magenta staining of the hepatocyte-like cells was found after the two-day incubation in high-glucose media.
Periodic acid-Schiff staining kit was purchased from Sigma. Cells were fixed with 4% paraformaldehyde in PBS for 20 minutes at room temperature. Staining procedures were performed according to manufacturer's instruction.

[3] = system: cytochrome P450 activity (CYP1A1); experiment: EROD assay for inducible cytochrome P450 activity; conditions: two-day exposure to 3-methylcholanthrene, day 36
Description: Day-thirty-four ES-derived cells were stimulated with 2 mM 3-methycholanthrene (3-MC) for two days. The conversion of ethyoxyresorufin to fluorescent resorufin was assayed on day thirty-six of culture. Values represent mean±SEM of three experiments and repeated in duplicate.
The EROD assay was used to measure inducible cytochrome P450 activity (CYP1A1) of the hepatocyte-like cells.
The drug metabolizing activity of the ES cell-derived hepatocytes were evaluated using an ethoxyresorufin 0-de-ethylase (EROD) assay. Day thirty-four ES cells were stimulated with 2 mM 3 methycholanthrene (3-MC) for two days. On day 36, the media was replaced with 10 μM ethoxyresorufin (Invitrogen) and 80 μM dicumarol (Sigma) in Earle's Balanced Salt Solution. Solution samples were collected at 5, 15, 25, and 35 minutes after the introduction of substrates. The increase in fluorescence intensity caused by conversion of ethyoxyresorufin to fluorescent resorufin estimates the CYP1A1 activity in hepatocytes.

ESDE cells [4] = experiment: RT-PCR gene expression of ESDE cells after agonist induction; conditions: for Transcriptional expression of tyrosine aminotransferase (Tat) / expression of albumin (Alb) and cytochrome P450 subunit 3a13 (Cyp3a13) mRNA: RT-PCR; for Transcriptional expression of tyrosine aminotransferase (Tat): over culture time; for expression of albumin (Alb) and cytochrome P450 subunit 3a13 (Cyp3a13) mRNA: day twenty-two, increased at day thirty
Description: Similarly, glucose-6-phosphatase (G6pc) mRNA expression could only be detected with DMSO or RA stimulation. […] Visceral endoderm marker Sox7 was also weakly expressed in every condition except with DMSO induction.
At day fourteen of culture, the ES cells were stimulated with the chemical agonists listed on Table 1 (above) in high glucose or low glucose DMEM supplemented with 10% FBS and 0.2 μM dexamethasone. The media with chemical agonists were exchanged every other day until day twenty. At day twenty of culture, the ES cells were cultured without the chemical agonists in high glucose or low glucose DMEM supplemented with 10% FBS and 0.2 μM dexamethasone. The ES cells were cultured up to day fifty with media exchange every other day.
RNA isolation was performed using the Nucleospin RNAII protocol (Clontech, Mountain View, Calif., USA). Following the removal of genomic DNA with DNase, the column was washed and RNA was eluted with distilled water. The RNA purity was quantified using the absorbance ratio at 260 nm (nucleic acids) and 280 nm (protein) and was greater than 1.9. One-Step RT-PCR kit (Qiagen, Valencia, Calif., USA) was used to analyze gene expression. Reactions were initiated using 10 ng RNA and 0.6 μM primer. RT reaction was conducted at 50° C. and 95° C. for 15 min. Three-step cycling was performed: denaturation at 94° C. for 30 s, annealing at 55° C. for 30 s, and extension at 72° C. for 1 min, with a final extension time of 10 min at 72° C. The number of cycles varied between 30 and 35. Following PCR, samples were run on a 2% agarose gel, stained with ethidium bromide, and imaged using the Fluor-X Multiimager (Bio-Rad, Hercules, Calif., USA). Mouse liver total RNA (Ambion, Austin, Tex., USA) was used as a control for hepatocyte gene expression. Markers: Foxa2, AFP, Sox 17, Albumin, GATA1, Runx2, Foxf1, NKx2.5, Tal1, Pax 6, AAT, CK8, CK18, TTR, CYP3A13, Brachyury, Goosecoid, β-actin.

ESDE cells [5] = experiment: Albumin secretion of ESDE cells into culture media (ELISA); conditions: DMSO induction, low glucose
Description: (§1) FIGS. 3A and 3B are bar graphs showing albumin and urea secretion rates of hepatocyte-like cells. Albumin secretion was measured at various timepoints by ELISA (3A). Urea secretion was measured with a colorimetric assay (3B). […] Urea and albumin secretion rates increased up to forty days of culture. […] Values represent mean±SD of two experiments and repeated in triplicate.
(§2) The maturation of ESDE cells into functional hepatocytes was evaluated by measuring the secretion of albumin and urea into the culture media (FIG. 3). […] Neither albumin nor urea secretion was detectable before day twenty in any of the other conditions tested.
(§3) At day fourteen of culture, the ES cells were stimulated with the chemical agonists listed on Table 1 (above) in high glucose or low glucose DMEM supplemented with 10% FBS and 0.2 μM dexamethasone. The media with chemical agonists were exchanged every other day until day twenty. At day twenty of culture, the ES cells were cultured without the chemical agonists in high glucose or low glucose DMEM supplemented with 10% FBS and 0.2 μM dexamethasone. […]
(§4) Collected medium samples were analyzed for secreted concentrations of mouse albumin by ELISA. […] Urea content was determined with diacetyl monoxime using a commercially available kit (StanBio Laboratory, Boerne, Tex.). The absorbance was measured with a Thermomax microplate reader (Molecular Devices, Sunnyvale, Calif.).

ESDE cells [6] = experiment: Urea secretion of ESDE cells into culture media (colorimetric assay); conditions: DMSO-stimulated ESDE cells
Description: as §1, §2, §3, §4

| Compound | Cell fraction of day 30 ES-derived cells positive for albumin promoter-driven GFP expression, High Glucose [1] | Cell fraction of day 30 ES-derived cells positive for albumin promoter-driven GFP expression, Low Glucose [1] | glucose-6-phosphatase (G6pc) mRNA expression (ESDE cells [4]; RT-PCR after induction) | Transcriptional expression of tyrosine aminotransferase (Tat) (ESDE cells [4]) | expression of albumin (Alb) and cytochrome P450 subunit 3a13 (Cyp3a13) mRNA (ESDE cells [4]) | also measured |
| --- | --- | --- | --- | --- | --- | --- |
| CCCCC[C@H](O)/C=C/[C@H]1[C@H](O)CC(=O)[C@@H]1C/C=C\CCCC(=O)O [PGE2, prostaglandin E2] | 7.8% | 57% |  |  |  |  |
| NC(=O)CC[C@@H]1NC(=O)[C@H](Cc2ccccc2)NC(=O)[C@H](Cc2ccc(O)cc2)NC(=O)[C@@H](N)CSSC[C@@H](C(=O)N2CCC[C@H]2C(=O)N[C@@H](CCCN=C(N)N)C(=O)NCC(N)=O)NC(=O)[C@H](CC(N)=O)NC1=O [vasopressin] | 4.5% | 59% |  |  |  |  |
| C[S+](C)[O-] [DMSO, Dimethyl sulfoxide] |  |  | detected | highest at day thrity | could be detected by day twenty-two | glycogen stores (periodic acid-Schiff stain) (ESDE cells [2]): visible glycogen stores; EROD activity compared to cells cultured in high glucose media without DMSO stimulation [3]: 20 fold; EROD activity over cells cultured in low glucose media without DMSO stimulation [3]: 4.5 fold; Definitive endoderm marker Sox17 expression (ESDE cells [4]; RT-PCR after induction): down-regulated; albumin secretion rate (ESDE cells [5]; day forty): 3.09 μg/hour/10^6 cells; albumin secretion rate (ESDE cells [5]; day twenty-two): 0.34 μg/hour/10^6 cells; urea secretion rate (ESDE cells [6]; day 22): 0.36 μg/hour/106 cells; urea secretion rate (ESDE cells [6]; day forty): 2.45 μg/hour/10^6 cells |
| CC1=C(/C=C/C(C)=C/C=C/C(C)=C/C(=O)O)C(C)(C)CCC1 [Retinoic Acid, all-trans retinoic acid] |  |  | detected | highest at day thrity | could be detected by day twenty-two |  |
